The text below walks through data of patent US20120190691A1, “PHARMACEUTICAL COMPOSITIONS FOR TREATMENT OF RESPIRATORY AND INFLAMMATORY DISEASES” (priority 2010, published 2012).

In this assay the test system is ovalbumin-induced bronchospasm. Kind of assay: Ovalbumin-induced bronchospasm (modified Konzett-Rössler) in sensitized anaesthetized guinea pigs. In kind it is in vivo. The protocol: Male and female Dunkin-Harley guinea pigs were obtained from the Experimental Animal Breeding Centre of Harlan Winkelmann (Germany). After fasting overnight, but with free access to drinking water, animals with body weight of 400-500 g were used.
Bronchospasm was recorded with a modified version of the method of Konzett-Röβler (described by Walland et al, in “Compensation of muscarinic bronchial effects of talsaclidine by concomitant sympathetic activation in guinea pigs”, European Journal of Pharmacology, Volume 330, Issue 2-3, 9 Jul. 1997, Pages 213-219). The animals were ventilated by means of a piston pump (starling ventilator, Hugo Sachs Elektronik, Germany) at a stroke volume of 1 ml/100 g body weight and at a rate of 60 strokes per min. The tubing which connected the tracheal cannula with the ventilator was provided with a branch leading to the bronchospasm transducer (bronchospasm transducer 7020, Ugo Basile, Italy). The air flow measurement is based on the hot wire anemometer principle. Any air flow will reduce the temperature of the wire, thereby decreasing its resistance in proportion of the flow. As the wire element is one arm of a Weaststone bridge, variation in resistance generate a proportional voltage output which feeds the amplifier/recording system (Notocord-hem, Notocord, France). Blood pressure and heart rate are monitored from a carotid artery in order to check the anesthesia and the variability of the preparation.
Guinea pigs were sensitized on 2 consecutive days with 20 μg ovalbumin (OVA) (Sigma, St. Louis, Mo.) and 20 mg Al(OH)3 in 0.5 ml saline, which were administered subcutaneously. Experiments, which included OVA challenge, were conducted 2 weeks after sensitization. Approximately 1 hour before OVA challenge, the animals were anaesthetized with an intraperitoneal injection of 50 mg/kg pentobarbital. Anesthesia was prolonged by intravenous infusion of pentobarbital (15 mg/kg/h) via the jugular vein. A tracheal cannula was introduced after tracheotomy for artificial ventilation. The internal jugular vein was cannulated for drug injection while the left carotid artery was cannulated for measuring blood pressure and heart rate. 30 minutes after the beginning of air flow and blood pressure measurements, bronchoconstriction is triggered by an OVA challenge given at a fixed dose of 50 μg/kg inhaled.
The test compounds or combinations of compounds were administered orally 2 hours before the OVA challenge.
The control group comprises 12 guinea-pigs, test compounds comprise 2 to 4 guinea-pigs.
Bronchoprotection of the drug (i.e. inhibition of OVA broncho-constriction) is expressed as a percentage of inhibition of the increase in overflow induced by OVA in the control animals.

Setting [1] is: Desloratidine 2.0 mg/kg p.o. alone (CRTH2 antagonist (1) 0.0).
The mark [2] stands for this setting: Fexofenadine 0.5 mg/kg p.o. alone (CRTH2 antagonist (1) 0.0).
The mark [3] stands for this setting: Pyrilamine 2.0 mg/kg p.o. alone (CRTH2 antagonist (1) 0.0).

`CN(C)c1nc(Cc2ccc(NC(=O)c3ccc(C(F)(F)F)cc3)cc2)nc(N(C)C)c1CC(=O)O` [CRTH2 antagonist (1), [4,6-bis(dimethylamino)-2-(4-(4-(trifluoromethyl)benzamido)benzyl)pyrimidin-5-yl]-acetic acid]: the overflow worked out at 63 mL (CRTH2 antagonist (1) 0.01 mg/kg p.o. alone, 2 hours before OVA challenge); 65 mL (CRTH2 antagonist (1) 0.03 mg/kg p.o. alone, 2 hours before OVA challenge); 69 mL (CRTH2 antagonist (1) 0.10 mg/kg p.o. alone, 2 hours before OVA challenge); 60 mL (CRTH2 antagonist (1) 0.30 mg/kg p.o. alone, 2 hours before OVA challenge); 65 mL (CRTH2 antagonist (1) 1.00 mg/kg p.o. alone, 2 hours before OVA challenge); 61 mL (CRTH2 antagonist (1) 3.00 mg/kg p.o. alone, 2 hours before OVA challenge). Moreover, where the note is “CRTH2 antagonist (1) 10.00 mg/kg p.o. alone, 2 hours before OVA challenge”, the overflow amounted to 65 mL. Further, the “effect in this assay by itself” value (alone, conclusion) is recorded as “no effect”. Moreover, the “effect by itself on the ovalbumin-induced bronchospasm” value (up to 10 mg/kg p.o., alone) was “no effect”.

`Clc1ccc2c(c1)CCc1cccnc1C2=C1CCNCC1` [Desloratidine, reference compound]: under setting [1], the bronchoprotection is listed as 43% and the overflow was determined as 34 mL.

As for `CC(C)(C(=O)O)c1ccc(C(O)CCCN2CCC(C(O)(c3ccccc3)c3ccccc3)CC2)cc1` (stereo not drawn) [Fexofenadine, reference compound], under setting [2], the bronchoprotection is 35% and the overflow turned out to be 39 mL.

Turning to `COc1ccc(CN(CCN(C)C)c2ccccn2)cc1` [Pyrilamine, reference compound], under setting [3], the bronchoprotection turned out to be 45% and the overflow was 33 mL.
